Laboratory results from ChEMBL document CHEMBL3739395, “Discovery and optimisation of 1-acyl-2-benzylpyrrolidines as potent dual orexin receptor antagonists” (Medchemcomm, 2015).
In brackets after ≈: the same amount, converted by molar mass. Activity calls are given as the source filed them. The rule behind the calls is not given here.

Key:
[1] = molecular target: T1, Orexin receptor type 2 (Homo sapiens, UniProt O43614); assay: Inhibition of human orexin-2 receptor expressed in CHO cells assessed as calcium release preincubated for 120 mins followed by addition of orexin-A by fluo-4 AM based-FLIPR analysis; assay type: functional, cell-based
T1 sequence (O43614 whole entry): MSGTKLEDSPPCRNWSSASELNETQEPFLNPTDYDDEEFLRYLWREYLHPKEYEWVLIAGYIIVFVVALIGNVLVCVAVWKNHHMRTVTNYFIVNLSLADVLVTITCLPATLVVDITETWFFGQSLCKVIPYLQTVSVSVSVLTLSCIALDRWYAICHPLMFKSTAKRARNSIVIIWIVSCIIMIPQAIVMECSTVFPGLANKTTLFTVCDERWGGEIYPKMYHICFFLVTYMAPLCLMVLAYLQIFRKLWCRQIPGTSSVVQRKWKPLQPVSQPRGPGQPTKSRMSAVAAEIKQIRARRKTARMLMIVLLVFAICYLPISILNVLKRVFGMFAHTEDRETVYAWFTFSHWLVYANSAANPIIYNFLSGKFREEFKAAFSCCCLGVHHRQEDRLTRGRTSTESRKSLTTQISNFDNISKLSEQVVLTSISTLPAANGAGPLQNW

[2] = Intrinsic clearance in human liver microsomes at 1 uM; assay type: ADME; settings: read-out: CLH
[3] = molecular target: T2, Orexin/Hypocretin receptor type 1 (Homo sapiens, UniProt O43613); assay: Inhibition of human orexin-1 receptor expressed in CHO cells assessed as calcium release preincubated for 120 mins followed by addition of orexin-A by fluo-4 AM based-FLIPR analysis; assay type: functional, cell-based
T2 sequence (O43613 whole entry): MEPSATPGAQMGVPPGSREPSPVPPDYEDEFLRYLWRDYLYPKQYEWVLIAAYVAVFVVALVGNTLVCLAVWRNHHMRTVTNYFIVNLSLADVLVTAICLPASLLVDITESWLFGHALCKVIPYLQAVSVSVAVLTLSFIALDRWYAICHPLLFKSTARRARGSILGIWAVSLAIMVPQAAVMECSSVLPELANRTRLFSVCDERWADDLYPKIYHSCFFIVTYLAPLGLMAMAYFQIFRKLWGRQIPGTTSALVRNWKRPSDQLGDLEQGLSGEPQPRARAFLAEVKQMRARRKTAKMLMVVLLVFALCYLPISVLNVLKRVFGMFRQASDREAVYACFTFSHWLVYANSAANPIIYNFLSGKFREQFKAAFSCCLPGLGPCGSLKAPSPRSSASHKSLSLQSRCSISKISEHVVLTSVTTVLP

[4] = Intrinsic clearance in rat liver microsomes at 1 uM; assay type: ADME; settings: read-out: CLH
[5] = Solubility of compound in unbuffered water at pH 4.1; assay type: physicochemical
[6] = Clearance in rat; assay type: ADME, organism-based; settings: in vivo
[7] = Oral bioavailability in rat; assay type: ADME, organism-based; settings: in vivo
[8] = Lipophilicity, log D of the compound; assay type: physicochemical; settings: octanol/water
[9] = test system: Rattus norvegicus; assay: Reduction in home cage activity in Wistar rat sleep model at 100 mg/kg, po administered as single dose during first 6 hrs of night active period post dose relative to vehicle control; assay type: functional; design: scale not given: the % may be the effect or the level left
[10] = test system: Rattus norvegicus; assay: Sleep promoting effect in Wistar rat sleep model at 100 mg/kg, po administered as single dose during first 6 hrs of night active period post dose relative to vehicle control; assay type: functional, organism-based
[11] = test system: Rattus norvegicus; assay: Reduction in time spent in active wake state in Wistar rat sleep model at 100 mg/kg, po administered as single dose during first 6 hrs of night active period post dose relative to vehicle control; assay type: functional; design: scale not given: the % may be the effect or the level left
[12] = test system: Rattus norvegicus; assay: Increase in time spent in quiet wake state in Wistar rat sleep model at 100 mg/kg, po administered as single dose during first 6 hrs of night active period post dose relative to vehicle control; assay type: functional
[13] = test system: Rattus norvegicus; assay: Increase in time spent in non-rapid eye movement sleep in Wistar rat sleep model at 100 mg/kg, po administered as single dose during first 6 hrs of night active period post dose relative to vehicle control; assay type: functional
[14] = test system: Rattus norvegicus; assay: Increase in time spent in rapid eye movement sleep in Wistar rat sleep model at 100 mg/kg, po administered as single dose during first 6 hrs of night active period post dose relative to vehicle control; assay type: functional
[15] = Drug uptake in Wistar rat brain at 100 mg/kg, po measured 3 hrs post dose; assay type: ADME, organism-based; settings: read-out: Drug uptake
[16] = Drug uptake in Wistar rat cerebrospinal fluid at 100 mg/kg, po measured 3 hrs post dose; assay type: ADME, organism-based; settings: read-out: Drug uptake
[17] = Ratio of drug level in brain to plasma in Wistar rat at 100 mg/kg, po measured 3 hrs post dose; assay type: ADME, organism-based; settings: brain and plasma, read-out: BPR
[18] = Plasma concentration in Wistar rat at 100 mg/kg, po measured 3 hrs post dose; assay type: ADME, organism-based
[19] = molecular target: Cytochrome P450 3A4 (Homo sapiens, UniProt P08684); assay: Inhibition of CYP3A4 (unknown origin) assessed as testosterone-6beta hydroxylation; assay type: ADME
Chain of Cytochrome P450 3A4 (P08684 whole entry): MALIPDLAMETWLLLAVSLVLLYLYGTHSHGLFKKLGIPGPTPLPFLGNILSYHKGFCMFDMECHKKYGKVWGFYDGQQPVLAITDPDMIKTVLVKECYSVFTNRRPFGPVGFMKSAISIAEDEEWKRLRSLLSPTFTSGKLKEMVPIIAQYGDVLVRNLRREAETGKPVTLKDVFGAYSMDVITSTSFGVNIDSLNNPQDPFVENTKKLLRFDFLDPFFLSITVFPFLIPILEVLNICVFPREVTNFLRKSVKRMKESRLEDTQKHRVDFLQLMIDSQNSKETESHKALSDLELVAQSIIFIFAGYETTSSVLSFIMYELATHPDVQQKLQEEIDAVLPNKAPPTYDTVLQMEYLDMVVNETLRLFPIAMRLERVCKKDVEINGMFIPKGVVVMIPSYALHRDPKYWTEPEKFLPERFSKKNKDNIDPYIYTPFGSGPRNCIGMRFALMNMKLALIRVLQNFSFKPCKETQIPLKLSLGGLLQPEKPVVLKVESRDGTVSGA

## COc1ccc(C[C@@H]2CCCN2C(=O)c2nc(C)sc2-c2ccc(F)cc2)cc1OC
[1]
  IC50: 62 nM
[2]
  microsomal CLint at 1 µM: 216 µL/min/mg
[3]
  IC50: 111 nM

## COc1ccc(-c2sc(C)nc2C(=O)N2CCC[C@H]2Cc2ccc(OC)c(OC)c2)cc1
[1]
  IC50: 10 nM
[2]
  microsomal CLint at 1 µM: 210 µL/min/mg
[3]
  IC50: 17 nM

## COc1ccc(C[C@@H]2CCCN2C(=O)c2cc(C)ccc2-n2nccn2)cc1OC
[1]
  IC50: 8.4 nM
[2]
  microsomal CLint at 1 µM: 356 µL/min/mg
[4]
  microsomal CLint at 1 µM: > 1250 µL/min/mg
[5]
  solubility: 160 µg/mL (≈ 394 µM)
[3]
  IC50: 8.5 nM
[6]
  clearance: 55 mL/min/kg
[7]
  bioavailability: < 10%
[8]
  logD: 3

## CCn1cc(C(=O)N2CCCCC2Cc2ccc(OC)c(OC)c2)c2ccccc21 (racemic)
[1]
  IC50: 102 nM
[3]
  IC50: 28 nM

## CNC(=O)[C@@H](c1ccccc1)N1CCc2cc(OC)c(OC)cc2[C@@H]1CCc1ccc(C(F)(F)F)cc1 [ALMOREXANT]
[9]
  Activity: -42%
[10]
  Activity: Active
[11]
  Activity: -20%
[12]
  Activity: -8%
[13]
  Activity: 22%
[14]
  Activity: 50%

## Cc1cccc(-c2sc(C)nc2C(=O)N2CCC[C@H]2Cc2ccc(Cl)c(Cl)c2)c1
[1]
  IC50: 66 nM
[2]
  microsomal CLint at 1 µM: > 1250 µL/min/mg
[3]
  IC50: 22 nM

## COc1cc(C[C@@H]2CCCN2C(=O)c2nc(C)sc2-c2cccc(C)c2)cc(OC)c1
[1]
  IC50: 4.3 nM
[2]
  microsomal CLint at 1 µM: 798 µL/min/mg
[3]
  IC50: 3.4 nM

## COc1cccc(-c2sc(C)nc2C(=O)N2CCC[C@H]2Cc2ccc(OC)c(OC)c2)c1
[1]
  IC50: 7.8 nM
[2]
  microsomal CLint at 1 µM: 300 µL/min/mg
[3]
  IC50: 11 nM

## COc1ccc(C[C@@H]2CCCN2C(=O)c2nccnc2-c2cccc(C)c2)cc1OC
[15]
  concentration at 3 h: 89 ng/mL
[16]
  concentration at 3 h: 22 ng/mL
[17]
  Kp at 3 h: 0.4
[1]
  IC50: 4 nM
[2]
  microsomal CLint at 1 µM: 158 µL/min/mg
[3]
  IC50: 23 nM
[18]
  concentration at 3 h: 225 ng/mL

## Cc1ccc(-n2nccn2)c(C(=O)N2CCN(c3nc4cc(Cl)ccc4o3)CC[C@H]2C)c1 [SUVOREXANT]
[9]
  Activity: -31%
[10]
  Activity: Active
[11]
  Activity: -16%
[12]
  Activity: 9%
[13]
  Activity: 19%
[14]
  Activity: 20%

## Cc1cccc(-c2sc(C)nc2C(=O)N2CCC[C@H]2Cc2ccc3c(c2)OCCO3)c1
[1]
  IC50: 39 nM
[2]
  microsomal CLint at 1 µM: 1040 µL/min/mg
[3]
  IC50: 35 nM

## COc1ccc(C[C@@H]2CCCN2C(=O)c2ccccc2-c2ncccn2)cc1OC
[15]
  concentration at 3 h: 134 ng/mL
[16]
  concentration at 3 h: 113 ng/mL
[17]
  Kp at 3 h: 0.18
[1]
  IC50: 4.7 nM
[2]
  microsomal CLint at 1 µM: 102 µL/min/mg
[3]
  IC50: 16 nM
[18]
  concentration at 3 h: 737 ng/mL

## COc1ccc(C[C@@H]2CCCN2C(=O)c2nc(C)sc2-c2ccc3c(c2)CCO3)cc1OC
[1]
  IC50: 8 nM
[2]
  microsomal CLint at 1 µM: 235 µL/min/mg
[3]
  IC50: 8.3 nM

## COc1ccc(Cl)c(C[C@@H]2CCCN2C(=O)c2nc(C)sc2-c2cccc(C)c2)c1
[1]
  IC50: 18 nM
[2]
  microsomal CLint at 1 µM: 996 µL/min/mg
[4]
  microsomal CLint at 1 µM: > 1250 µL/min/mg
[3]
  IC50: 33 nM

## COc1ccc(C[C@@H]2CCCN2C(=O)c2nc(C)sc2-c2cccc(Cl)c2)cc1OC
[1]
  IC50: 6.3 nM
[2]
  microsomal CLint at 1 µM: 612 µL/min/mg
[3]
  IC50: 9.1 nM

## COc1ccc(C[C@@H]2CCCN2C(=O)c2nc(C)sc2-c2cccc(C)c2)cc1OC
[15]
  concentration at 3 h: 125 ng/mL
[16]
  concentration at 3 h: 6 ng/mL
[17]
  Kp at 3 h: 0.97
[1]
  IC50: 3.1 nM
[2]
  microsomal CLint at 1 µM: 338 µL/min/mg
[4]
  microsomal CLint at 1 µM: > 1250 µL/min/mg
[3]
  IC50: 3.5 nM
[18]
  concentration at 3 h: 129 ng/mL

## Cc1cccc(-c2sc(C)nc2C(=O)N2CCC[C@H]2Cc2ccc3c(c2)OCO3)c1
[1]
  IC50: 40 nM
[2]
  microsomal CLint at 1 µM: 124 µL/min/mg
[3]
  IC50: 64 nM

## CCn1cc(C(=O)N2CCc3ccsc3C2Cc2ccc(OC)c(OC)c2)c2ccccc21 (racemic)
[1]
  IC50: 1.4 nM
[2]
  microsomal CLint at 1 µM: > 1250 µL/min/mg
[4]
  microsomal CLint at 1 µM: > 1250 µL/min/mg
[5]
  solubility: 7 µg/mL (≈ 15.2 µM)
[3]
  IC50: 5.4 nM
[19]
  IC50: 3000 nM

## COc1ccc(CC2CCCCN2C(=O)c2cc(C)ccc2-n2nccn2)cc1OC (racemic)
[1]
  IC50: 3.3 nM
[2]
  microsomal CLint at 1 µM: 616 µL/min/mg
[3]
  IC50: 2.7 nM

## COc1ccc(CCC2CCCCN2C(=O)c2cc(C)ccc2-n2nccn2)cc1OC (racemic)
[1]
  IC50: 16 nM
[2]
  microsomal CLint at 1 µM: 817 µL/min/mg
[3]
  IC50: 28 nM

## COc1ccc(C[C@@H]2CCCN2C(=O)c2ccccc2-c2nc(C)no2)cc1OC
[1]
  IC50: 12 nM
[2]
  microsomal CLint at 1 µM: 129 µL/min/mg
[3]
  IC50: 33 nM

## COc1ccc(C[C@@H]2CCCN2C(=O)c2nc(C)ccc2-c2ncccn2)cc1OC
[1]
  IC50: 71 nM
[2]
  microsomal CLint at 1 µM: 17 µL/min/mg
[3]
  IC50: 60 nM

## COc1ccc(C[C@@H]2CCCN2C(=O)c2cc(C)ccc2-n2cccn2)cc1OC
[1]
  IC50: 65 nM
[2]
  microsomal CLint at 1 µM: > 1250 µL/min/mg
[3]
  IC50: 45 nM

## COc1cccc(C[C@@H]2CCCN2C(=O)c2nc(C)sc2-c2cccc(C)c2)c1Cl
[1]
  IC50: 16 nM
[2]
  microsomal CLint at 1 µM: > 1250 µL/min/mg
[4]
  microsomal CLint at 1 µM: > 1250 µL/min/mg
[3]
  IC50: 26 nM

## Cc1cccc(-c2sc(C)nc2C(=O)N2CCC[C@H]2Cc2ccc(C)c(Cl)c2)c1
[1]
  IC50: 10 nM
[2]
  microsomal CLint at 1 µM: > 1250 µL/min/mg
[4]
  microsomal CLint at 1 µM: > 1250 µL/min/mg
[3]
  IC50: 13 nM

## COc1ccc(C[C@@H]2CCCN2C(=O)c2ccccc2-n2nccn2)cc1OC
[15]
  concentration at 3 h: 45 ng/mL
[16]
  concentration at 3 h: 12 ng/mL
[17]
  Kp at 3 h: 0.39
[1]
  IC50: 3.5 nM
[2]
  microsomal CLint at 1 µM: 104 µL/min/mg
[4]
  microsomal CLint at 1 µM: > 1250 µL/min/mg
[3]
  IC50: 16 nM
[18]
  concentration at 3 h: 114 ng/mL

## COc1ccc(CC2c3sccc3CCN2C(=O)c2cc(C)ccc2-n2nccn2)cc1OC (racemic)
[1]
  IC50: 428 nM
[3]
  IC50: 131 nM

## COc1cccc(CCC2CCCCN2C(=O)c2cc(C)ccc2-n2nccn2)c1 (racemic)
[1]
  IC50: 243 nM
[2]
  microsomal CLint at 1 µM: 1170 µL/min/mg
[3]
  IC50: 108 nM

## COc1ccc(C[C@@H]2CCCN2C(=O)c2nc(C)sc2-c2cccc(C)c2)cc1Cl
[1]
  IC50: 1.8 nM
[2]
  microsomal CLint at 1 µM: > 1250 µL/min/mg
[4]
  microsomal CLint at 1 µM: > 1250 µL/min/mg
[3]
  IC50: 3.8 nM
